Converted amounts (≈) assume the structure as drawn.
System: endothelial cells (HUVEC)
Experiment: Cytotoxicity, MTT assay
Assay type: cell-based, human
Conditions: Homo sapiens, HUVEC, 24 h, 37 °C, 800 to 1.6 μg/mL, 50% cell viability
Description: Cytotoxicity assay. Cytotoxicity tests were performed on NIH 3T3 fibroblast cells, endothelial cells (HUVEC), macrophage (RAW264.7), liver cells (LO2), kidney cells (COS7) and enterocyte (NCM-460) using MTT assay. Cells were cultured in DMEM supplemented with 10% FBS, 5% penicillin, 2 mM L-glutamine and incubated at 37 °C in 5% CO 2. Cells were harvested and seeded onto 96-well plates at a density of 1.0 × 10^4 cells per well and incubated for 24 h. On each plate, wells containing growth medium only and cells in growth medium without any antifungal agent were used as the negative and positive control, […]
concentrations ranging from 800 to 1.6 μg/mL. Medium in each cell-containing well was replaced with 100 μL of the corresponding polymer solution, and the plates were incubated at 37 °C for 24 h. Then, the solution in each well was switched to 100 µL MTT solution (1 mg/mL) and the plate was incubated in the dark at 37 °C for 4 h. […] Then 85 µL of the supernatant from each well was transferred to the corresponding well in a new plate, followed by absorbance measurement at 570 nm on a plate reader. […] The percentage of cell viability in each test well, relative to the positive control (which defines 100%) w as calculated from [% fibroblast growth = (A polymer – Ablank)/(Acontrol – A blank) × 100]. […]

**Q.** With `C[C@@H]1[C@H](O)[C@@H](C)/C=C/C=C/C=C/C=C/C=C/C=C/C=C/[C@H](O[C@@H]2O[C@H](C)[C@@H](O)[C@H](N)[C@@H]2O)C[C@@H]2O[C@](O)(C[C@@H](O)C[C@@H](O)[C@H](O)CC[C@@H](O)C[C@@H](O)CC(=O)O[C@H]1C)C[C@H](O)[C@H]2C(=O)O` [AmpB, amphotericin B] as the compound, how does the IC50 read?
**A.** 8.8 µg/mL (≈ 9.52 µM)
